Data reported in patent US6737383B1, “Herbicidal oxadiazolidines” (priority 1999, dated 2004).

What was measured:
[1] = test system: bedstraw; experiment: Test B pre/postemergence bedstraw; type: in vivo, Galium aparine; conditions: Postemergence
Outline: (§1)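 Herbicidal effect was estimated by eye on a ten-point control scale after plants spent twelve to sixteen days in a greenhouse following soil or foliar treatment. Foliar sprays targeted plants at one to four leaves; all doses were formulated in a non-phytotoxic solvent with surfactant.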

[2] = test system: blackgrass; experiment: Test B pre/postemergence blackgrass; type: in vivo, Alopecurus myosuroides
Outline: as §1

[3] = test system: surinam grass; experiment: Test B pre/postemergence surinam grass; type: in vivo, Brachiaria decumbens
Outline: as §1

[4] = test system: corn; experiment: Test B pre/postemergence corn; type: in vivo, Zea mays
Outline: as §1

[5] = test system: crabgrass; experiment: Test B pre/postemergence crabgrass; type: in vivo, Digitaria sanguinalis
Outline: as §1

[6] = test system: pigweed; experiment: Test B pre/postemergence pigweed; type: in vivo, Amaranthus retroflexus
Outline: as §1

[7] = test system: rape; experiment: Test B pre/postemergence rape; type: in vivo, Brassica napus
Outline: as §1

[8] = test system: soybean; experiment: Test B pre/postemergence soybean; type: in vivo, Glycine max
Outline: as §1

[9] = test system: sugar beet; experiment: Test B pre/postemergence sugar beet; type: in vivo, Beta vulgaris
Outline: as §1

[10] = test system: velvetleaf; experiment: Test B pre/postemergence velvetleaf; type: in vivo, Abutilon theophrasti
Outline: as §1

[11] = test system: wheat; experiment: Test B pre/postemergence wheat; type: in vivo, Triticum aestivum
Outline: as §1

[12] = test system: wild oat; experiment: Test B pre/postemergence wild oat; type: in vivo, Avena fatua
Outline: as §1

[13] = test system: purple nutsedge; experiment: Test B pre/postemergence purple nutsedge; type: in vivo, Cyperus rotundus
Outline: as §1

[14] = test system: rice; experiment: Test B flood test rice; type: in vivo, Oryza sativa
Outline: (§2)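 Read-out is a visual response score from 0 (no effect) to 10 (complete control), assigned by comparison with untreated controls. Treatment was applied at the 2-leaf stage, and plants stayed in the greenhouse for twelve to sixteen days before scoring.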

[15] = test system: smallflower flatsedge; experiment: Test B flood test smallflower flatsedge; type: in vivo, Cyperus difformis
Outline: as §2

[16] = test system: duck salad; experiment: Test B flood test duck salad; type: in vivo, Heteranthera limosa
Outline: as §2

[17] = Postemergence, Rate 250 g/ha, scale 0 to 10
[18] = Postemergence, Rate 500 g/ha, scale of 0 to 10 where 0 is no effect and 10 is complete control
[19] = Preemergence, Rate 62 g/ha, scale of 0 to 10 where 0 is no effect and 10 is complete control
[20] = Preemergence, Rate 125 g/ha, scale of 0 to 10 where 0 is no effect and 10 is complete control
[21] = Preemergence, Rate 250 g/ha, scale 0 to 10, 0 is no effect, 10 is complete control
[22] = Preemergence, Rate 500 g/ha, scale 0 to 10, 0 is no effect, 10 is complete control
[23] = Rate 62 g/ha, Postemergence, scale 0 to 10, 0 no effect, 10 complete control
[24] = Rate 125 g/ha, Postemergence, scale 0 to 10, 0 is no effect, 10 is complete control
[25] = Rate 62 g/ha, flood test species, Pre-emergence, visual evaluation after twelve to sixteen days
[26] = Rate 125 g/ha, under heading Pre-emergence, flood test species, visual evaluation after twelve to sixteen days
[27] = Rate 250 g/ha, Pre-emergence (flood test species), scale 0 to 10, 0 is no effect, 10 is complete control
[28] = Rate 500 g/ha, Pre-emergence, flood test species, scale 0 to 10 (0 no effect, 10 complete control)

CC(C)N(C(=O)n1oc(=O)n(CCl)c1=O)c1ccc(F)cc1F [Compound 437]
Bedstraw plant response rating ([1]; Rate 250 g/ha, scale 0 to 10): 0 | Bedstraw plant response rating ([1]; Rate 62 g/ha, scale 0 to 10, 0 no effect, 10 complete control): 0 | Bedstraw plant response rating ([1]; Rate 125 g/ha, scale 0 to 10, 0 is no effect, 10 is complete control): 0 | Blackgrass plant response rating [2, 17]: 0 | Blackgrass plant response rating [2, 18]: 0 | Plant response rating, Blackgrass [2, 19]: 0 | Plant response rating, Blackgrass [2, 20]: 0 | Blackgrass plant response rating [2, 21]: 0 | Blackgrass plant response rating [2, 22]: 0 | Blackgrass plant response rating [2, 23]: 0 | Blackgrass plant response rating [2, 24]: 0 | B. signalgrass plant response rating ([3]; Postemergence, Rate 250 g/ha, scale 0 to 10, 0 no effect, 10 complete control): 0 | B. signalgrass plant response rating [3, 18]: 0 | Plant response rating, B. signalgrass [3, 19]: 0 | Plant response rating, B. signalgrass [3, 20]: 0 | B. signalgrass plant response rating [3, 21]: 0 | B. signalgrass plant response rating [3, 22]: 0 | B. signalgrass plant response rating [3, 23]: 0 | B. signalgrass plant response rating [3, 24]: 0 | Corn plant response rating [4, 17]: 0 | Corn plant response rating [4, 18]: 0 | Plant response rating, Corn [4, 19]: 0 | Plant response rating, Corn [4, 20]: 0 | Corn plant response rating [4, 21]: 0 | Corn plant response rating [4, 22]: 0 | Corn plant response rating [4, 23]: 0 | Corn plant response rating [4, 24]: 0 | Crabgrass plant response rating [5, 17]: 1 | Crabgrass plant response rating [5, 18]: 3 | Plant response rating, Crabgrass [5, 19]: 0 | Plant response rating, Crabgrass [5, 20]: 0 | Crabgrass plant response rating [5, 21]: 0 | Crabgrass plant response rating [5, 22]: 2 | Crabgrass plant response rating [5, 23]: 0 | Crabgrass plant response rating [5, 24]: 1 | Redroot pigweed plant response rating [6, 17]: 0 | Redroot pigweed plant response rating [6, 18]: 0 | Plant response rating, Redroot pigweed [6, 19]: 0 | Plant response rating, Redroot pigweed [6, 20]: 0 | Redroot pigweed plant response rating [6, 21]: 0 | Redroot pigweed plant response rating [6, 22]: 0 | Redroot pigweed plant response rating [6, 23]: 0 | Redroot pigweed plant response rating [6, 24]: 0 | Rape plant response rating [7, 17]: 0 | Rape plant response rating [7, 18]: 0 | Plant response rating, Rape [7, 19]: 0 | Plant response rating, Rape [7, 20]: 0 | Rape plant response rating [7, 21]: 0 | Rape plant response rating [7, 22]: 0 | Rape plant response rating [7, 23]: 0 | Rape plant response rating [7, 24]: 0 | Soybean plant response rating [8, 17]: 0 | Soybean plant response rating [8, 18]: 2 | Plant response rating, Soybean [8, 19]: 0 | Plant response rating, Soybean [8, 20]: 0 | Soybean plant response rating [8, 21]: 0 | Soybean plant response rating [8, 22]: 0 | Soybean plant response rating [8, 23]: 0 | Soybean plant response rating [8, 24]: 0 | Sugarbeets plant response rating [9, 17]: 0 | Sugarbeets plant response rating [9, 18]: 0 | Plant response rating, Sugarbeets [9, 19]: 0 | Plant response rating, Sugarbeets [9, 20]: 0 | Sugarbeets plant response rating [9, 21]: 0 | Sugarbeets plant response rating [9, 22]: 0 | Sugarbeets plant response rating [9, 23]: 0 | Sugarbeets plant response rating [9, 24]: 0 | Velvetleaf plant response rating [10, 17]: 0 | Velvetleaf plant response rating [10, 18]: 0 | Plant response rating, Velvetleaf [10, 19]: 0 | Plant response rating, Velvetleaf [10, 20]: 0 | Velvetleaf plant response rating [10, 21]: 0 | Velvetleaf plant response rating [10, 22]: 0 | Velvetleaf plant response rating [10, 23]: 0 | Velvetleaf plant response rating [10, 24]: 0 | Wheat plant response rating [11, 17]: 0 | Wheat plant response rating [11, 18]: 0 | Plant response rating, Wheat [11, 19]: 0 | Plant response rating, Wheat [11, 20]: 0 | Wheat plant response rating [11, 21]: 0 | Wheat plant response rating [11, 22]: 0 | Wheat plant response rating [11, 23]: 0 | Wheat plant response rating [11, 24]: 0 | Wild oats plant response rating [12, 17]: 0 | Wild oats plant response rating [12, 18]: 3 | Plant response rating, Wild oats [12, 19]: 0 | Plant response rating, Wild oats [12, 20]: 0 | Wild oats plant response rating [12, 21]: 0 | Wild oats plant response rating [12, 22]: 0 | Wild oats plant response rating [12, 23]: 0 | Wild oats plant response rating [12, 24]: 0 | Nutsedge plant response rating [13, 17]: 0 | Nutsedge plant response rating [13, 18]: 0 | Plant response rating, Nutsedge [13, 19]: 0 | Plant response rating, Nutsedge [13, 20]: 0 | Nutsedge plant response rating [13, 21]: 0 | Nutsedge plant response rating [13, 22]: 0 | Nutsedge plant response rating [13, 23]: 0 | Nutsedge plant response rating [13, 24]: 0 | Plant response rating, Rice (0 to 10 scale, 0 is no effect, 10 is complete control) [14, 25]: 0 | Rice plant response rating (0 to 10 scale, 0 is no effect, 10 is complete control) [14, 26]: 0 | Rice plant response rating [14, 27]: 0 | Rice plant response rating [14, 28]: 0 | Plant response rating, S. Flatsedge (0 to 10 scale, 0 is no effect, 10 is complete control) [15, 25]: 0 | S. Flatsedge plant response rating (0 to 10 scale, 0 is no effect, 10 is complete control) [15, 26]: 0 | S. Flatsedge plant response rating [15, 27]: 0 | S. Flatsedge plant response rating [15, 28]: 0 | Plant response rating, Ducksalad (0 to 10 scale, 0 is no effect, 10 is complete control) [16, 25]: 0 | Ducksalad plant response rating (0 to 10 scale, 0 is no effect, 10 is complete control) [16, 26]: 0 | Ducksalad plant response rating [16, 27]: 0 | Ducksalad plant response rating [16, 28]: 0
